Data on 11 compounds can be found in ChEMBL document CHEMBL4422621, “Novel chalcone and flavone derivatives as selective and dual inhibitors of the transport proteins ABCB1 and ABCG2” (Eur J Med Chem, 2019).

SMILES strings stand for the structures. Where only a bound is given, the exact number is not on record here.

Series [1] is described as follows: Growth inhibition of MDCK2 cells expressing BCRP (unknown origin) after 72 hrs by MTT assay. Particulars: dog; call rule not given here. Type of series: ADME, cell-based, Canis lupus familiaris, MDCK-II. A general note: Tetrazolium assays rely on reduction of a dye to a coloured formazan, in cell work by metabolically active cells.
The target in series [2] is T1, Broad substrate specificity ATP-binding cassette transporter ABCG2 (Homo sapiens, UniProt Q9UNQ0).
T1 sequence (Q9UNQ0 whole entry): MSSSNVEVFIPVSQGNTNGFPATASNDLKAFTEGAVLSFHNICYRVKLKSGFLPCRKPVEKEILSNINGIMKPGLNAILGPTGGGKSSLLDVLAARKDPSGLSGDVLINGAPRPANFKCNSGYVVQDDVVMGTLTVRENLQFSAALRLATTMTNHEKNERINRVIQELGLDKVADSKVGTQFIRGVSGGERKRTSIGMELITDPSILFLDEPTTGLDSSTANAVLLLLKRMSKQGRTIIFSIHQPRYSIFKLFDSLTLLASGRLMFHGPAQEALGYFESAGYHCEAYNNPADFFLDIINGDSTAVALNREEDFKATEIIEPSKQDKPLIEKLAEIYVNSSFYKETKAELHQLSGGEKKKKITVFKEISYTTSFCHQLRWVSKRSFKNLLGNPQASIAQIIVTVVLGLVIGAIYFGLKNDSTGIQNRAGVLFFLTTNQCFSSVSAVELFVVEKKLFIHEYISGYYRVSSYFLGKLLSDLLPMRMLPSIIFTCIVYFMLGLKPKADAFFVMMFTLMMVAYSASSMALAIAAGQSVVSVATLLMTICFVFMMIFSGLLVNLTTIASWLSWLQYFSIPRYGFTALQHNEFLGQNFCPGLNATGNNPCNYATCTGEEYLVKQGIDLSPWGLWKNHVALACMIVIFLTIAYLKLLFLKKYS
Kind of series: Inhibition of ABCG2 (unknown origin) expressed in MDCK II BCRP cells assessed as effect on pheophorbide A accumulation after 120 mins by flow cytometric analysis. Type of series: cell-based.

In series [3] the target is ABCB1 (P-gp) (Homo sapiens, UniProt P08183). Kind of series: (§1) Inhibition of ABCB1 in human A2780/ADR cells preincubated for 30 mins followed by calcein AM addition and measured every 60 secs for 1 hr by fluorescence assay. The series is classed as cell-based. Particulars: human, A2780/ADR cells, probe calcein AM; read-out: Imax.
For series [4], the target named is T2, ATP-dependent translocase ABCB1 (Homo sapiens, UniProt P08183). The description is as §1. The series is classed as cell-based.
Series [5] has as its system ABCG2 (BCRP). As to the kind of experiment: Therapeutic index, ratio of GI50 for MDCK2 cells expressing BCRP (unknown origin) to EC50 for ABCG2 (unknown origin) co-expressed in MDCK2 cells expressing BCRP (unknown origin). The series is classed as toxicity, cell-based. The note with it: dog.
Series [6] is described as follows: Growth inhibition of MDCK2 cells after 72 hrs by MTT assay. The series is classed as cell-based, Canis lupus familiaris, MDCK-II. Particulars: dog.
Series [7] concerns the target T3, ABCG2 (BCRP) (Homo sapiens, UniProt Q9UNQ0).
T3 sequence (Q9UNQ0 whole entry): T1 sequence (Q9UNQ0 whole entry)
Kind of series: (§2) Inhibition of ABCG2 (unknown origin) expressed in MDCK II BCRP cells assessed as effect on heophorbide A accumulation at 5 to 10 uM after 120 mins by flow cytometric analysis relative to control. Type of series: cell-based. The note with it: MDCK II BCRP cells expressing ABCG2, probe pheophorbide A. Background: In flow cytometry, cells or beads pass a laser one at a time.

Series [8] can be described thus: Growth inhibition of human A2780 cells after 72 hrs by MTT assay. Type of series: cell-based.
Series [9] is described as follows: Growth inhibition of human A2780/ADR cells after 72 hrs by MTT assay. Type of series: cell-based.
The subject of series [10] is ABCB1 (P-gp). Kind of series: Therapeutic index, ratio of GI50 for human A2780/ADR cells to EC50 for ABCB1 in human A2780/ADR cells. Type of series: toxicity, cell-based.
Series [11] addresses T4, Multidrug resistance-associated protein 1 (Homo sapiens, UniProt P33527). Kind of series: Inhibition of ABCC1 in human […] cells at 5 to 10 uM preincubated for 30 mins followed by calcein AM addition and measured every 60 secs for 1 hr by fluorescence assay. Type of series: cell-based.
Series [12] deals with T2, ATP-dependent translocase ABCB1. Kind of series: Inhibition of ABCB1 in human A2780/ADR cells at 5 to 10 uM preincubated for 30 mins followed by calcein AM addition and measured every 60 secs for 1 hr by fluorescence assay. Type of series: cell-based.
The target of series [13] is T4, Multidrug resistance-associated protein 1. As to the kind of experiment: Inhibition of ABCC1 in human […] cells preincubated for 30 mins followed by calcein AM addition and measured every 60 secs for 1 hr by fluorescence assay. Type of series: cell-based.
In series [14] the target is T1, Broad substrate specificity ATP-binding cassette transporter ABCG2. The description is as §2. Type of series: cell-based. The note with it: 2 h.

T2 sequence (P08183 whole entry): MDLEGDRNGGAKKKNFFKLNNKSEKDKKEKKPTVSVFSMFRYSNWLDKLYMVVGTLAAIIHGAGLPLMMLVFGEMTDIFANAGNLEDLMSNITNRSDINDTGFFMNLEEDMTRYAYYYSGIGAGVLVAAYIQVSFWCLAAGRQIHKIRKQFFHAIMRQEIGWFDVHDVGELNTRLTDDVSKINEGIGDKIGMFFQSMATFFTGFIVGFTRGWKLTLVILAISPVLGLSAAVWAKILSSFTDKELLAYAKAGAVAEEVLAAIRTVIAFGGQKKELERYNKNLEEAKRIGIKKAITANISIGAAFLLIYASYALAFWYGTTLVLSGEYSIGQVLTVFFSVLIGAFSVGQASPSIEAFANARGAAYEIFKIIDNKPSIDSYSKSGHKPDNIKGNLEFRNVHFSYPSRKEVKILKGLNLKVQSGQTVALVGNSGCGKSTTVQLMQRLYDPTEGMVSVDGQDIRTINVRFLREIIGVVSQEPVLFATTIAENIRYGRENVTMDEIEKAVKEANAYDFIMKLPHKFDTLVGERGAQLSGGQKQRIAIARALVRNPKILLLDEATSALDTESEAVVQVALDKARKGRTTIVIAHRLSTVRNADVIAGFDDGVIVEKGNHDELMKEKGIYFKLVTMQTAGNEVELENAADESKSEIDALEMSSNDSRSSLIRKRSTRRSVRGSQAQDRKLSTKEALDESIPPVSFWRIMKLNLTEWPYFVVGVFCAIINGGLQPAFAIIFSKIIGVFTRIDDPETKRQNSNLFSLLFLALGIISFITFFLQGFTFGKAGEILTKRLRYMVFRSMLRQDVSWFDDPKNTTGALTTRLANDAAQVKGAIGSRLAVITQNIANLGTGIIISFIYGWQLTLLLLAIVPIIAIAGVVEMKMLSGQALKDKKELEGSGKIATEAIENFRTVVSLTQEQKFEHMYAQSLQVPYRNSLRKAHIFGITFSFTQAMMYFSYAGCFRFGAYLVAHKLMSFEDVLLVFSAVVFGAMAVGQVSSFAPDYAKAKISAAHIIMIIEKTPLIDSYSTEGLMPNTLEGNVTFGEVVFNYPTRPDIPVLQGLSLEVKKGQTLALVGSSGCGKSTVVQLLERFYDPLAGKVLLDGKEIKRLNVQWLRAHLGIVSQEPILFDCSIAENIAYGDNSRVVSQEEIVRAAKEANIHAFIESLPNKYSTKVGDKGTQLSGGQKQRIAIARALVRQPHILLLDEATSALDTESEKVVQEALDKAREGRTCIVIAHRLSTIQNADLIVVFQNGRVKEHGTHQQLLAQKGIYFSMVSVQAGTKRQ
T4 sequence (P33527 whole entry): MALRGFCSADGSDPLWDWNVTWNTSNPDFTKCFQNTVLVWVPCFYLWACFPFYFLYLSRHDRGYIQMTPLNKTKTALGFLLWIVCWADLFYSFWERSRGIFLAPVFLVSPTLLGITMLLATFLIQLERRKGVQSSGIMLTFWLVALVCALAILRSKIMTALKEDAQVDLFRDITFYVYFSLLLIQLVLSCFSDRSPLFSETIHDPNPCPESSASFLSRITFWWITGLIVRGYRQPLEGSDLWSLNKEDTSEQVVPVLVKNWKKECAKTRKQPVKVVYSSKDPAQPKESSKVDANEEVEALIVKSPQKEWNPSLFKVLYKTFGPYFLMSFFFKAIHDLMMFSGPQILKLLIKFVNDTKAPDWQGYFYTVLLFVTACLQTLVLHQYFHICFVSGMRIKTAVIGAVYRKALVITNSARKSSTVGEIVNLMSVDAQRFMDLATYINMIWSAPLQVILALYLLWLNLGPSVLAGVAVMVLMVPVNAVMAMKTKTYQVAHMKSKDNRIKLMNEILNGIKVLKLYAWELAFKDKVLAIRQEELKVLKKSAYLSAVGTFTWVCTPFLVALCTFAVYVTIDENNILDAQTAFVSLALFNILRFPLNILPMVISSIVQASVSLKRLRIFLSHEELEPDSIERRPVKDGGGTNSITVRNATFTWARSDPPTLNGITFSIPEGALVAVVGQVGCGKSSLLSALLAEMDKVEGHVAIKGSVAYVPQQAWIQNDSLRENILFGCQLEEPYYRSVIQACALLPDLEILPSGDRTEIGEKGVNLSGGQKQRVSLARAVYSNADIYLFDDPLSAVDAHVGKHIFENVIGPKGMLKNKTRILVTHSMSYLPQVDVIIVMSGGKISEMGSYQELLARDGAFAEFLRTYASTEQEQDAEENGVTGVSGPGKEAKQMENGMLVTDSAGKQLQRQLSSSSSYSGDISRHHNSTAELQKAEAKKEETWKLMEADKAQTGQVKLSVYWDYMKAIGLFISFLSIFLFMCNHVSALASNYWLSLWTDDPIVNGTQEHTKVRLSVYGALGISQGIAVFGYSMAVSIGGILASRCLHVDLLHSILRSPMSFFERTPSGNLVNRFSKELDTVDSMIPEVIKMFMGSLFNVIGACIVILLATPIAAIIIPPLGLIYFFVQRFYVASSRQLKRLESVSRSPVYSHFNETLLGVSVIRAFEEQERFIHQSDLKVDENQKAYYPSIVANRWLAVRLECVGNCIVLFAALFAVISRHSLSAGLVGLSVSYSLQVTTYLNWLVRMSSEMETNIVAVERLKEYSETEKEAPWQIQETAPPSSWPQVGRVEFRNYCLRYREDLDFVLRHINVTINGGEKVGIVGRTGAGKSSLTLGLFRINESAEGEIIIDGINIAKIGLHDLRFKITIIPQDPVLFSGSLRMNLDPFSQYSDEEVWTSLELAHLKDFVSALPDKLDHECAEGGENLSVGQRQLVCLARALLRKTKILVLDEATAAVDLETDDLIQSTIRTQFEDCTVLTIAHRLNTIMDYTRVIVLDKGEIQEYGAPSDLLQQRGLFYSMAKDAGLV
Sequence of ABCB1 (P-gp) (Homo sapiens, UniProt P08183) (P08183 whole entry): as the sequence (P08183 whole entry) above

Usually GI50 stands for the concentration giving 50% growth inhibition. A higher GI50 goes with lower sensitivity of the cells. For orientation: IC50 means the concentration that inhibits the measured activity by half. As a reminder, the inhibition is the percentage by which the read-out fell short of the control. For the compound `COc1ccc(-c2c(OCC(=O)Nc3cccc4ccccc34)oc3ccccc3c2=O)cc1`, the concentration for 50% growth inhibition (GI50) at 72 h in series [1] and in [6] was > 100 µM in each case. Further, the IC50 in series [2] was 5.09 µM; in series [4] it was 1.41 µM. Further, at ABCB1 (P-gp) [3], the Emax at 1 h was 51%. Moreover, the selectivity ratio in the series on ABCG2 (BCRP) [5] was > 19.6. In addition, the inhibition at 2 h on ABCG2 (BCRP) [7] was ≥ 25%.
`O=C(COc1c(-c2ccccc2Cl)oc2ccccc2c1=O)Nc1ccc2c(c1)COC2=O`: the GI50 at 72 h is 56.3 µM in [1], 61.1 µM in [8], 67.6 µM in series [6] and 69.2 µM in series [9]. Besides, the IC50 is 2.9 µM in series [2] and 5.01 µM in [4]. Further, the results for the selectivity ratio with ABCG2 (BCRP) [5] and in the series on ABCB1 (P-gp) [10] were 19.4 and 13.8, respectively. Also, the inhibition at 2 h at ABCG2 (BCRP) [7] is ≥ 25%.
With `O=C(COc1cccc(C(=O)/C=C/c2ccccc2)c1)Nc1ccc2c(c1)COC2=O`, the GI50 at 72 h in [1] came to 16.6 µM; in [6] it was 11.5 µM. Besides, the half-maximal inhibitory concentration (IC50) in series [2] was 6.08 µM. For the same compound, in the series on ABCG2 (BCRP) [5], the selectivity ratio amounted to 2.7. Besides, the inhibition at 2 h on ABCG2 (BCRP) [7] is ≥ 25%.
For the compound `CCCOc1ccc(/C=C/C(=O)c2ccc(O)cc2)cc1`, the “inhibition (INH)” value in series [11] and in [12] was “Not Active” throughout. In addition, the results for the GI50 at 72 h in series [1] and in series [6] were 28.5 µM and 31.1 µM, respectively. In addition, the concentration for half-maximal inhibition (IC50) in series [2] is 4.74 µM. Further, the selectivity ratio in the series on ABCG2 (BCRP) [5] was 6. At ABCG2 (BCRP) [7], the inhibition at 2 h was ≥ 25%.
For `COc1ccc(-c2c(OCC(=O)Nc3cccc4ccccc34)oc3ccccc3c2=O)cc1OC`, the 50% growth inhibitory concentration (GI50) at 72 h in [1] was > 100 µM; in series [8] it was 43.6 µM; in series [6] it was > 100 µM; in [9], 45.3 µM. Also, the IC50 in [2] is 3.75 µM; in series [4], 5.43 µM. Further, the selectivity ratio in the series on ABCG2 (BCRP) [5] is > 26.7; in the series on ABCB1 (P-gp) [10], 8.3. The inhibition at 2 h at ABCG2 (BCRP) [7] is ≥ 25%.
As to `COc1ccc(NC(=O)COc2ccc(C(=O)/C=C/c3c(F)cccc3F)cc2)cc1OC`, the 50% growth inhibitory concentration (GI50) at 72 h in series [1] amounted to 36.6 µM; in [6] it was 36.2 µM. The concentration for half-maximal inhibition (IC50) in [2] amounted to 6.11 µM. The selectivity ratio in the series on ABCG2 (BCRP) [5] turned out to be 6. The inhibition at 2 h at ABCG2 (BCRP) [7] was ≥ 25%.
In the case of `COc1cc(/C=C/C(=O)c2cccc(OCC(=O)Nc3ccc4c(c3)COC4=O)c2)cc(OC)c1OC`, the IC50 was 9.93 µM in [2] and 11.7 µM in [4]. Moreover, the inhibition at 2 h on ABCG2 (BCRP) [7] was ≥ 25%.
On to `COc1ccc(NC(=O)COc2ccc(C(=O)/C=C/c3cc(OC)c(OC)c(OC)c3)cc2)cc1OC`, for which the GI50 at 72 h was 27.7 µM in series [1] and 18.9 µM in series [6]. The IC50 in series [2] was 3.37 µM; in [13], 12.5 µM. The selectivity ratio in the series with ABCG2 (BCRP) [5] amounted to 8.2. At ABCG2 (BCRP) [7], the inhibition at 2 h is ≥ 25%.
For the compound `Cc1ccc(-c2c(OCC(=O)Nc3cccc4ccccc34)oc3ccccc3c2=O)cc1`, the GI50 at 72 h in series [8] came out at 68.7 µM; in [9], 98.6 µM. Moreover, the 50% inhibitory concentration (IC50) in series [4] was 1.89 µM. Moreover, the “inhibition (INH)” value in series [14] is listed as “Not Active”. In addition, the selectivity ratio with ABCB1 (P-gp) [10] is 52.2.
For `COc1cc(C(=O)/C=C/c2cc(OC)c(OC)c(OC)c2)ccc1O`, the “inhibition (INH)” value in series [11] and in [12] was “Not Active” throughout. Moreover, the concentration for 50% growth inhibition (GI50) at 72 h in series [1] was 9.38 µM; in series [6] it was 7.56 µM. Further, in series [2], the IC50 worked out at 1.97 µM. Besides, in the series with ABCG2 (BCRP) [5], the selectivity ratio worked out at 4.8. Besides, at ABCG2 (BCRP) [7], the inhibition at 2 h is ≥ 25%.
`COc1cc(/C=C/C(=O)c2ccc(OCC(=O)NCc3ccc4c(c3)OCO4)cc2)cc(OC)c1OC`: the values for the GI50 at 72 h in series [1] and in series [6] were 63.5 µM and 61.5 µM, respectively. Further, in series [2], the half-maximal inhibitory concentration (IC50) turned out to be 6.89 µM. Further, the selectivity ratio in the series with ABCG2 (BCRP) [5] came out at 9.2. Also, the inhibition at 2 h at ABCG2 (BCRP) [7] is ≥ 25%.
